The results in this text go back to US20260325533A1, “CDK INHIBITOR COMPOUNDS” (ALEKSIA THERAPEUTICS, INC., priority 2023, published 2026).

Assay type in all cases: biochemical
One test concerns the target CDK2/CCNE1 (Homo sapiens, UniProt P24941). Description: CDK2 homogeneous time-resolved fluorescence (HTRF) kinase assay. Particulars: CDK2/CCNE. A digest of the protocol: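 3 nM CDK2/CCNE1 was preincubated with compound for 20 min at 23 °C in HEPES buffer (pH not stated), then reacted 60 min with 1 mM ATP and 50 nM ULight-4E-BP1 (Thr37/46) peptide. After EDTA stop, Eu-anti-phospho-4E-BP1 antibody (2 nM) was added for 60 min and TR-FRET read at 665 nm.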
(In general: TR-FRET usually uses a lanthanide donor and a delayed reading to cut background.)

The target in a further test is CDK1/CCNB1 (Homo sapiens, UniProt P06493). Nature of the test: CDK1 homogeneous time-resolved fluorescence (HTRF) kinase assay. To be noted: CDK1/CCNB. The method, boiled down: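 Kinase activity is measured as Lance signal (665 nm, or 665/615 nm ratio) from europium-labelled anti-phospho-Thr37/46 antibody binding ULight-4E-BP1 peptide. Reactions contain 0.5 nM enzyme, 1 mM ATP, 1% DMSO and run 60 min at 23 °C before EDTA quench.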
CDK1/CCNB1, sequence (P06493 whole entry): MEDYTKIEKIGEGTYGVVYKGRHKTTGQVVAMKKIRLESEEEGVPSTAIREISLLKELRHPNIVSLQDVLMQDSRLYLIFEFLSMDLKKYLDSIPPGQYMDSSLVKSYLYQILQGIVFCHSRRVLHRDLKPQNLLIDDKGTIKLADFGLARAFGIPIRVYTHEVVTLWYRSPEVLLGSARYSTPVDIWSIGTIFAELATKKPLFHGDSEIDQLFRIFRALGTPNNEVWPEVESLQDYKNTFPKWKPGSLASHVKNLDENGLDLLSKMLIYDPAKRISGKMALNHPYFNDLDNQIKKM
CDK1/CCNB1, sequence (P14635 whole entry partner): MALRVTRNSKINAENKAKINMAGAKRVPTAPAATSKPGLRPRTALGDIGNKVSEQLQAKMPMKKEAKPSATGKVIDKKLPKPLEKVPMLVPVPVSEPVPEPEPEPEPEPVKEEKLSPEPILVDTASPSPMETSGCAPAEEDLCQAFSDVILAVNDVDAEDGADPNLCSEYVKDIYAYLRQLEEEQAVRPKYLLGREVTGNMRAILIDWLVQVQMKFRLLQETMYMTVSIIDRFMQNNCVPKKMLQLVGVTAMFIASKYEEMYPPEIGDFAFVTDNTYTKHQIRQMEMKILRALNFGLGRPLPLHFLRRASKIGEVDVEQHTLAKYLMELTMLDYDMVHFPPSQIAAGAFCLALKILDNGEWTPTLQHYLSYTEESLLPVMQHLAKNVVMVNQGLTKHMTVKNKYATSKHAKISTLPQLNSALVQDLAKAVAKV

In another test the target is CDK4/CCND3 (Homo sapiens, UniProt P11802). Description: CDK4 homogeneous time-resolved fluorescence (HTRF) kinase assay. Particulars: CDK4/CCND. The method, boiled down:
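Compounds were preincubated with 1.5 nM CDK4/CCND3 for 20 min at 23 °C in HEPES buffer (pH not given), then reacted 60 min with 1 mM ATP and 50 nM ULight-4E-BP1 (Thr37/46) peptide. EDTA stop, Eu-anti-phospho-4E-BP1 detection; 665/615 nm ratio; IC50 from 11-point half-log titrations from 10 μM.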

In another test the target is CDK6/CCND1 (Homo sapiens, UniProt Q00534). Nature of the test: CDK6 homogeneous time-resolved fluorescence (HTRF) kinase assay. To be noted: CDK6/CCND. A digest of the protocol: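 1 nM enzyme, 1 mM ATP, 50 nM ULight-4E-BP1 (Thr37/46) peptide, 1% DMSO; 20 min compound preincubation, 60 min reaction, 23 °C. EDTA stop, 2 nM Eu-anti-phospho-4E-BP1 antibody 60 min. TR-FRET 665 nm (or 665/615 ratio); IC50 from 11-point half-log titration, top 10 μM.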
CDK6/CCND1, sequence (Q00534 whole entry): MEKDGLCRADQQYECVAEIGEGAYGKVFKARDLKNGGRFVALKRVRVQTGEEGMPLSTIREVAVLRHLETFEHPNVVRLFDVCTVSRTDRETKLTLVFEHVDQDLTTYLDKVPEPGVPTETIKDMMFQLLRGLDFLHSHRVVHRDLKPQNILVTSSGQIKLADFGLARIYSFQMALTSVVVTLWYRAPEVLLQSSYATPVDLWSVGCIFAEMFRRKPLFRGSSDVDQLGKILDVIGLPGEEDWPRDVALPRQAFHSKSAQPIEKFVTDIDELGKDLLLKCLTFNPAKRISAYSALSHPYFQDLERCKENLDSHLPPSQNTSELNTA
CDK6/CCND1, sequence (P24385 whole entry partner): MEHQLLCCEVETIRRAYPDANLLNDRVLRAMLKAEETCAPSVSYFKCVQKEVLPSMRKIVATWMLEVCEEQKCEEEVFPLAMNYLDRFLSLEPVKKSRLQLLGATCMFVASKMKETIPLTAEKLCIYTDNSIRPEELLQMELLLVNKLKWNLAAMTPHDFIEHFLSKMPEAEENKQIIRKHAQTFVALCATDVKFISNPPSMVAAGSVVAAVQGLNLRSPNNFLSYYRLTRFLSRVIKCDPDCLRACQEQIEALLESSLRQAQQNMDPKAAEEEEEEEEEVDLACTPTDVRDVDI

Setting [1] is: x = IC50 <25 nM, read-out: CDK2/CCNE IC50 (<25 nM).
The mark [2] stands for this setting: x = IC50 >250 nM, read-out: CDK1/CCNB IC50 (>250 nM column).
Where [3] appears, read: x = IC50 >250 nM, read-out: CDK4/CCND IC50 (>250 nM column).
The mark [4] stands for this setting: x = IC50 >250 nM, read-out: CDK6/CCND IC50 (>250 nM column).
[5] abbreviates: <25 nM, read-out: CDK2/CCNE IC50 <25 nM.
The mark [6] stands for this setting: 25-250 nM marked x, read-out: CDK1/CCNB IC50 25-250 nM.
[7] abbreviates: >250 nM marked x, read-out: CDK6/CCND IC50 >250 nM.
Where [8] appears, read: >250 nM marked x, read-out: CDK1/CCNB IC50 >250 nM.
Where [9] appears, read: >250 nM marked x, read-out: CDK4/CCND IC50 >250 nM.
[10] abbreviates: >250 nM marked x, read-out: CDK2/CCNE IC50 >250 nM.
Setting [11] is: 25-250 nM marked x, read-out: CDK2/CCNE IC50 25-250 nM.

pIC50: −log10 of the molar value. Where two headings read alike, the source gives them in different places.

CDK4/CCND3, sequence (P11802 whole entry): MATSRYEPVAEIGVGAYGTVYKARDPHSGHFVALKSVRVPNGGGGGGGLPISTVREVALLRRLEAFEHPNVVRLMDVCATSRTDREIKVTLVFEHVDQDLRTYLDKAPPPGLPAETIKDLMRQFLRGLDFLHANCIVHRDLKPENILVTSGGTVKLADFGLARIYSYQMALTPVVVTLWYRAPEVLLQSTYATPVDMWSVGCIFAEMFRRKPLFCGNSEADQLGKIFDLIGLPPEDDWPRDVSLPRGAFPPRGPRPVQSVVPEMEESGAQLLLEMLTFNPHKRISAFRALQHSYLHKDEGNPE
CDK4/CCND3, sequence (P30281 whole entry partner): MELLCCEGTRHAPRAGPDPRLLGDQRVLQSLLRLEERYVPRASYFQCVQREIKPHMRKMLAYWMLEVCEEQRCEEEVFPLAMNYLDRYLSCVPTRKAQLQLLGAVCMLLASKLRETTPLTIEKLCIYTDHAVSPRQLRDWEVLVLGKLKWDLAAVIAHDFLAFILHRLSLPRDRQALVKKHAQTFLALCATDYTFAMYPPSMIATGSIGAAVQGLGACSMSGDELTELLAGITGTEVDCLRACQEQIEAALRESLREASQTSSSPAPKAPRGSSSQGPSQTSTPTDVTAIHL

With `CC(C)S(=N)(=O)c1ccc(Nc2cc3c(C#Cc4ccc(=O)[nH]n4)nccc3cn2)cc1` (racemic) [Example 431, 6-((7-((4-(propan-2-ylsulfonimidoyl)phenyl)amino)-2,6-naphthyridin-1-yl)ethynyl)pyridazin-3(2H)-one], the pIC50 was above 7.60 at CDK2/CCNE1 (setting [1]), below 6.60 on CDK1/CCNB1 (setting [2]), below 6.60 on CDK4/CCND3 (setting [3]) and below 6.60 at CDK6/CCND1 (setting [4]).

On to `Cc1c(-c2nccc3cnc(Nc4ccc(S(C)(=N)=O)cc4)cc23)ccc2nn(C)cc12` (racemic) [Example 626, (4-((5-(2,4-dimethyl-2H-indazol-5-yl)-2,6-naphthyridin-3-yl)amino)phenyl)(imino)(methyl)-λ^6-sulfanone], for which the pIC50 is above 7.60 on CDK2/CCNE1 (setting [1]), below 6.60 at CDK1/CCNB1 (setting [2]), below 6.60 at CDK4/CCND3 (setting [3]) and below 6.60 on CDK6/CCND1 (setting [4]).

Regarding `CC1(O)C=C(c2nccc3cnc(Nc4ccc(S(C)(=O)=O)cc4)cc23)CCC1` (racemic) [Example 671, 1-methyl-3-(7-((4-(methylsulfonyl)phenyl)amino)-2,6-naphthyridin-1-yl)cyclohex-2-en-1-ol], the pIC50 at CDK2/CCNE1 (setting [1]) was above 7.60; at CDK1/CCNB1 (setting [2]), below 6.60; on CDK4/CCND3 (setting [3]) it was below 6.60; on CDK6/CCND1 (x = IC50 25-250 nM, read-out: CDK6/CCND IC50 (25-250 nM)), 6.60 to 7.60.

For `CS(=O)(=O)c1ccc(Nc2cc3c(N4CC[C@H](c5ccc(C#N)cc5)[C@H](O)C4)nccc3cn2)cc1` (relative stereo) [Example 606, 4-(3-hydroxy-1-(7-((4-(methylsulfonyl)phenyl)amino)-2,6-naphthyridin-1-yl)piperidin-4-yl)benzonitrile], the pIC50 at CDK2/CCNE1 (x = IC50 25-250 nM, read-out: CDK2/CCNE IC50 (25-250 nM)) is 6.60 to 7.60; at CDK1/CCNB1 (setting [2]), below 6.60; on CDK4/CCND3 (setting [3]), below 6.60; at CDK6/CCND1 (setting [4]), below 6.60.

As for `CS(=O)(=O)N1CCC(Nc2cc3c(N4CCC(C#N)C4)nccc3cn2)CC1` (single isomer, unassigned) [Ex 115, 1-(7-((1-(methylsulfonyl)piperidin-4-yl)amino)-2,6-naphthyridin-1-yl)pyrrolidine-3-carbonitrile], the pIC50 was above 7.60 at CDK2/CCNE1 (setting [5]); 6.60 to 7.60 at CDK1/CCNB1 (setting [6]); above 7.60 at CDK4/CCND3 (<25 nM, read-out: CDK4/CCND IC50 <25 nM); above 7.60 at CDK6/CCND1 (<25 nM, read-out: CDK6/CCND IC50 <25 nM).

Regarding `Cc1cc(S(=N)(=O)C2COC2)ccc1Nc1cc2c(C#Cc3ccc4c(c3)NC(=O)C43CC3)nccc2cn1` (single isomer, unassigned) [Ex 268, 6'-((7-((2-methyl-4-(oxetane-3-sulfonimidoyl)phenyl)amino)-2,6-naphthyridin-1-yl)ethynyl)spiro[cyclopropane-1,3'-indolin]-2'-one], the pIC50 was above 7.60 at CDK2/CCNE1 (setting [5]); 6.60 to 7.60 on CDK1/CCNB1 (setting [6]); 6.60 to 7.60 on CDK4/CCND3 (25-250 nM marked x, read-out: CDK4/CCND IC50 25-250 nM); below 6.60 at CDK6/CCND1 (setting [7]).

For the molecule `CCC1(CC)C(=O)Nc2cc(C#Cc3nccc4cnc(Nc5ccc(S(=N)(=O)C6CCC6)cc5OC)cc34)ccc21` (single isomer, unassigned) [Ex 269, 6-((7-((4-(cyclobutanesulfonimidoyl)-2-methoxyphenyl)amino)-2,6-naphthyridin-1-yl)ethynyl)-3,3-diethylindolin-2-one], the pIC50 was above 7.60 on CDK2/CCNE1 (setting [5]), below 6.60 at CDK1/CCNB1 (setting [8]), below 6.60 at CDK4/CCND3 (setting [9]) and below 6.60 on CDK6/CCND1 (setting [7]).

Take `CCC1(CC)C(=O)Nc2cc(C#Cc3nccc4cnc(Nc5ccc(S(=N)(=O)C6COC6)cc5F)cc34)ccc21` (single isomer, unassigned) [Ex 273, 3,3-diethyl-6-((7-((2-fluoro-4-(oxetane-3-sulfonimidoyl)phenyl)amino)-2,6-naphthyridin-1-yl)ethynyl)indolin-2-one]: the pIC50 on CDK2/CCNE1 (setting [5]) is above 7.60; at CDK1/CCNB1 (setting [8]), below 6.60; on CDK4/CCND3 (setting [9]), below 6.60; at CDK6/CCND1 (setting [7]), below 6.60.

On to `COc1cc(S(=N)(=O)C2CC2)ccc1Nc1cc2c(C#Cc3ccc4c(c3)NC(=O)C43CC3)nccc2cn1` (single isomer, unassigned) [Ex 278, 6'-((7-((4-(cyclopropanesulfonimidoyl)-2-methoxyphenyl)amino)-2,6-naphthyridin-1-yl)ethynyl)spiro[cyclopropane-1,3'-indolin]-2'-one], for which the pIC50 at CDK2/CCNE1 (setting [5]) is above 7.60; on CDK1/CCNB1 (setting [8]) it was below 6.60; on CDK4/CCND3 (setting [9]), below 6.60; on CDK6/CCND1 (setting [7]) it was below 6.60.

For `CCC1(CC)C(=O)Nc2cc(C#Cc3nccc4cnc(Nc5ccc(S(=N)(=O)CC(F)(F)F)cc5OC)cc34)ccc21` (single isomer, unassigned) [Ex 281, 3,3-diethyl-6-((7-((2-methoxy-4-(2,2,2-trifluoroethylsulfonimidoyl)phenyl)amino)-2,6-naphthyridin-1-yl)ethynyl)indolin-2-one], the pIC50 at CDK2/CCNE1 (setting [10]), on CDK1/CCNB1 (setting [8]), at CDK4/CCND3 (setting [9]) and at CDK6/CCND1 (setting [7]) was below 6.60 throughout.

Consider `CCC1(CC)C(=O)Nc2cc(C#Cc3nccc4cnc(Nc5ccc(S(=N)(=O)CC(F)(F)F)cc5C)cc34)ccc21` (single isomer, unassigned) [Ex 284, 3,3-diethyl-6-((7-((2-methyl-4-(2,2,2-trifluoroethylsulfonimidoyl)phenyl)amino)-2,6-naphthyridin-1-yl)ethynyl)indolin-2-one], for which the pIC50 was 6.60 to 7.60 at CDK2/CCNE1 (setting [11]), below 6.60 on CDK1/CCNB1 (setting [8]), below 6.60 on CDK4/CCND3 (setting [9]) and below 6.60 on CDK6/CCND1 (setting [7]).

For the molecule `CCS(=N)(=O)c1ccc(Nc2cc3c(C#Cc4ccc5c(c4)NC(=O)C54CC4)nccc3cn2)c(OC)c1` (single isomer, unassigned) [Ex 289, 6'-((7-((4-(ethylsulfonimidoyl)-2-methoxyphenyl)amino)-2,6-naphthyridin-1-yl)ethynyl)spiro[cyclopropane-1,3'-indolin]-2'-one], the pIC50 on CDK2/CCNE1 (setting [5]) is above 7.60; at CDK1/CCNB1 (setting [8]) it was below 6.60; on CDK4/CCND3 (setting [9]), below 6.60; on CDK6/CCND1 (setting [7]), below 6.60.

With `CCC1(CC)C(=O)Nc2cc(C#Cc3nccc4cnc(Nc5ccc(S(C)(=N)=O)cc5C(F)F)cc34)ccc21` (single isomer, unassigned) [Ex 294, 6-((7-((2-(difluoromethyl)-4-(S-methylsulfonimidoyl)phenyl)amino)-2,6-naphthyridin-1-yl)ethynyl)-3,3-diethylindolin-2-one], the pIC50 on CDK2/CCNE1 (setting [11]) is 6.60 to 7.60; at CDK1/CCNB1 (setting [8]), below 6.60; on CDK4/CCND3 (setting [9]), below 6.60; at CDK6/CCND1 (setting [7]), below 6.60.

For the molecule `CCC1(CC)C(=O)Nc2cc(C#Cc3nccc4cnc(Nc5ccc(S(=N)(=O)C6CC6)cc5OC)cc34)ccc21` (single isomer, unassigned) [Ex 299, 6-((7-((4-(cyclopropanesulfonimidoyl)-2-methoxyphenyl)amino)-2,6-naphthyridin-1-yl)ethynyl)-3,3-diethylindolin-2-one], the pIC50 at CDK2/CCNE1 (setting [11]) was 6.60 to 7.60; at CDK1/CCNB1 (setting [8]) it was below 6.60; on CDK4/CCND3 (setting [9]), below 6.60; on CDK6/CCND1 (setting [7]) it was below 6.60.

For the molecule `CCC1(CC)C(=O)Nc2cc(C#Cc3nccc4cnc(Nc5ccc(S(=N)(=O)C6CC(F)(F)C6)cc5F)cc34)ccc21` (single isomer, unassigned) [Ex 301, 6-((7-((4-(3,3-difluorocyclobutane-1-sulfonimidoyl)-2-fluorophenyl)amino)-2,6-naphthyridin-1-yl)ethynyl)-3,3-diethylindolin-2-one], the pIC50 on CDK2/CCNE1 (setting [10]), at CDK1/CCNB1 (setting [8]), on CDK4/CCND3 (setting [9]) and at CDK6/CCND1 (setting [7]) was below 6.60 throughout.
